Experimental data from patent US10703723B2 (Truly Translational Sweden AB, priority 2017, dated 2020).
Like-named read-outs stand apart in the source and are kept apart here.

How the values were obtained:
[1] = appearance of test formulations / solubility over time in PBC buffer (pH 7.4); type: physicochemical; details: 0.5% CMC in phosphate buffer (pH 7.4)
in vivo = details: rat, po, 40 mg/kg
Method: In accordance with Swedish legislations for preclinical in vivo studies in rodents and following evaluation and approval of the experimental procedures the local ethical committee (M388-12), following acclimatization to the housing conditions for a minimum of 7 days after arrival, male Wistar (Hannover) rats (Taconic, Denmark), average weight 300 g; average age 8-10 weeks, were treated with test items (see table 1); 12-16 h prior to dosing all food except for an amount equivalent to a half day consumption was removed. […] The rats were conscious during sample collection and the blood was taken from the sub-lingual vein. Blood samples were collected from each rat over a period of up to 24 h. At each time point two aliquots of 50 μL each was added to a vial containing 150 μL of sterile water. The samples were mixed immediately and stored in −18° C. until preparation for bioanalysis commenced. All formulations were prepared on the same day that dosing took place. The body weight of the rat was recorded before dosing. The weight of the syringe was recorded before and after administration to allow calculation of the actual amount of test sample delivered. Actual dose administered was used during the evaluation of the data.
Samples and standards were injected by a HTC PAL from CTC analytics into an LC system from Shimadzu consisting of a high pressure gradient system of two LC-10 AD pumps controlled by a SCL-10A controller from Shimadzu. The samples were separated using reverse-phase chromatography with gradient elution at a flow rate of 0.8 mL/min. Mobile phases were A:94.9/5/0.1 water/acetonitrile/formic acid and B:5/94.9/0.1 water/acetonitrile/formic acid. Gradient started at 0% B and increased linearly to 100% B in 4 minutes, 100% B was kept for 0.5 minutes and then the system returned to 0% B in 0.1 minutes. The system was equilibrated for 1.4 minutes until the total run time of 6 minutes. The eluent was analyzed by a Quattro Ultima from Micromass equipped with an electrospray ion source. Data was collected and calibrations were calculated by MassLynx 4.0 software. […] The eluent was ionized by negative ion electrospray and the mrm transition from 397 to 197 m/z was monitored.
The diluted blood sample (50 μL blood, 150 μL water) was thawed and mixed. 400 μL of acetonitrile, to precipitate the protein was added and mixed again. The sample was centrifuged at 5000 g for 5 minutes. 100 μL of the supernatant was transferred to a 300 μL glass vial and 100 μL of water was added to reduce the acetonitrile concentration.
The concentration of the standard curve was in the range from 5 nM to 15625 nM. Samples with analyte concentrations above the upper limit of quantification were diluted with matrix to reach within the assay range. A non-compartmental analysis (NCA) was performed using the Phoenix WinNonLin analysis tool.

[2] = RA, 24 weeks, cited from earlier work
[3] = ambient temperature; cited from earlier work
[4] = cited from earlier work; for time to steady state levels: sulfasalazine therapy
[5] = solubility in de-ionized water at rt after 24 h; details: thermodynamic from solid
Method: The produced examples were characterized regarding identity, crystal modification, thermal properties, melting point, solubility in water, purity, and hygroscopicity using the following methods:
The flow rate was 1.0 mL/min, injection volume 5 μL and detection wavelengths 358 nm (for assay) and 260 nm (for chromatographic purity). Quantitation was performed using external standard methodology. The assay method has been validated with respect to selectivity, repeatability and linearity.

SMILES | Appearance of test formulations t = 0 h [1] | Appearance of test formulations t = 4 h [1] | Ratio SP to SSZ for AUC0-4 h (h*nmol/L) (in vivo) | Ratio SP to SSZ for Cmax (nmol/L) (in vivo) | solubility at 24 h [5] [µg/mL] | other results
O=C(COC(=O)c1cc(N=Nc2ccc(S(=O)(=O)Nc3ccccn3)cc2)ccc1O)NCC1CC1 [Compound 2f, 2-((cyclopropylmethyl)amino)-2-oxoethyl-2-hydroxy-5-((4-(N-(pyridine-2-yl)sulfamoyl)phenyl)diazenyl) benzoate] | clear solution | milky | 6:1 | 2:1 |  | 
O=C(O)c1cc(/N=N/c2ccc(S(=O)(=O)Nc3ccccn3)cc2)ccc1O [Sulfasalazine, 2-hydroxy-5-[2-[4-[(2-pyridinylamino)sulfonyl]phenyl]diazenyl]-benzoic acid] |  |  |  |  |  | overall clinical status ([2]; fast acetylators, 3 g/day): marked improvement; overall clinical status ([2]; slow acetylators, half of the SSZ dose (1.5 g/d)): remained unchanged; Tmax (in vivo; male, Wistar (Hannover)): 15 min; Tmax for SP (in vivo; male, Wistar (Hannover)): 4 h; water solubility [3]: less than 0.05 mg/mL; time to steady state levels of sulfasalazine ([4]; multiple dosing): ≤ 24 h
CNC(=O)COC(=O)c1cc(/N=N/c2ccc(S(=O)(=O)Nc3ccccn3)cc2)ccc1O [Compound 2a, 2-(methylamino)-2-oxoethyl-2-hydroxy-5-((4-(N-(pyridine-2-yl)sulfamoyl)phenyl)diazenyl) benzoate] | clear solution | clear solution |  |  | > 5000 | 
CCN(CC)C(=O)COC(=O)c1cc(N=Nc2ccc(S(=O)(=O)Nc3ccccn3)cc2)ccc1O [Compound 3b, 2-(diethylamino)-2-oxoethyl-2-hydroxy-5-((4-(N-(pyridine-2-yl)sulfamoyl)phenyl)diazenyl) benzoate] | clear solution | clear solution | 8:1 | 5:1 |  | 
CC(C)NC(=O)COC(=O)c1cc(N=Nc2ccc(S(=O)(=O)Nc3ccccn3)cc2)ccc1O [Compound 2d, 2-(isopropylamino)-2-oxoethyl-2-hydroxy-5-((4-(N-(pyridine-2-yl)sulfamoyl)phenyl)diazenyl) benzoate] | clear solution | clear solution | 2:1 | 2:1 |  | 
COCCNC(=O)COC(=O)c1cc(N=Nc2ccc(S(=O)(=O)Nc3ccccn3)cc2)ccc1O [Compound 2h, 2-(2-methoxylethyl)amino)-2-oxoethyl-2-hydroxy-5-((4-(N-(pyridine-2-yl)sulfamoyl)phenyl)diazenyl) benzoate] | clear solution | clear solution | 8:1 | 6:1 |  | 
CCN(C)C(=O)COC(=O)c1cc(/N=N/c2ccc(S(=O)(=O)Nc3ccccn3)cc2)ccc1O [Compound 4a, 2-(ethyl(methyl)amino)-2-oxoethyl-2-hydroxy-5-((4-(N-(pyridine-2-yl)sulfamoyl)phenyl)diazenyl) benzoate] | clear solution | clear solution |  |  | > 1000 | 
CN(C)C(=O)COC(=O)c1cc(/N=N/c2ccc(S(=O)(=O)Nc3ccccn3)cc2)ccc1O [Compound 3a, 2-(dimethylamino)-2-oxoethyl-2-hydroxy-5-((4-(N-(pyridine-2-yl)sulfamoyl)phenyl)diazenyl) benzoate] | clear solution | milky |  |  | > 500 | 
CC(=O)Nc1ccc(S(=O)(=O)Nc2ccccn2)cc1 [acetylated sulfapyridine] |  |  |  |  |  | time to steady state levels [4]: 72 h
Nc1ccc(S(=O)(=O)Nc2ccccn2)cc1 [sulfapyridine] |  |  |  |  |  | elimination half-life ([4]; fast acetylators): 5.5 h; total plasma clearance ([4]; fast acetylators): 135.3 mL/min; time after which metabolite can be detected in the plasma ([4]; following oral administration of sulfasalazine): about 10 hours; plasma protein binding ([4]; no difference between fast and slow acetylators): ca. 50 °; elimination half-life ([4]; slow acetylators): 15.3 h; total plasma clearance ([4]; slow acetylators): 36.9 mL/min; time to steady state levels [4]: 72 h
O=C(OCC(=O)N1CCOCC1)c1cc(/N=N/c2ccc(S(=O)(=O)Nc3ccccn3)cc2)ccc1O [Compound 1a, 2-morpholino-2-oxoethyl-2-hydroxy-5-((4-(N-(pyridine-2-yl)sulfamoyl)phenyl)diazenyl) benzoate] | clear solution | clear solution |  |  | > 5000 | 
